Values after ≈ are worked out from the molar mass of the structure shown. Where two headings read alike, the source gives them in different places.
Experiments:
MRC-5 cells = settings: human
HCoV-229E = test: Anti-HCoV-229E activity in Huh7.5 cells (CPE method); assay type: cell-based; settings: Human coronavirus 229E
HCoV-OC43 [1] = test: Anti-HCoV-OC43 activity in MRC-5 cells (CPE method); assay type: cell-based; settings: for IC50: Betacoronavirus 1, OC43, MRC5, 0 h
HCT-8 cells = settings: human
HCoV-OC43 [2] = test: Anti-HCoV-OC43 activity in HCT-8 cells (CPE method); assay type: cell-based
human coronavirus HKU1 = assay type: cell-based
[3] = test system: severe acute respiratory syndrome coronavirus SARS-CoV; assay type: cell-based; settings: in vitro
PI3K/Akt/mTOR pathway = assay type: cell-based
2019-nCoV = test: Anti-2019-nCoV activity in Vero E6 cells (CPE); settings: in words
[4] = test system: coronaviruses (HCoV-229E and HCoV-OC43); test: CPE experiment on coronaviruses, single components compared with carrimycin; assay type: cell-based; settings: above CPE method
[5] = test system: Middle East Respiratory Syndrome Coronavirus (MERS-CoV); assay type: cell-based; settings: in vitro
[6] = test system: human coronavirus NL63(HCoV-NL63); assay type: cell-based
[7] = 0h: administration at the same time of infection, read-out: IC50, First batch
[8] = 0h: administration at the same time of infection, read-out: IC50, Second batch
[9] = 2h: administration 2 hours after infection, read-out: IC50, First batch
[10] = 2h: administration 2 hours after infection, read-out: IC50, Second batch

Molecule | TC50 (MRC-5 cells) | IC50 (HCoV-229E; [7]) | IC50 (HCoV-229E; 0h: administration at the same time of infection, read-out: IC50, Mean value) | IC50 (HCoV-229E; [8]) | IC50 (HCoV-229E; [9]) | IC50 (HCoV-229E; [10]) | IC50 (HCoV-OC43 [1]) | TC50 (HCT-8 cells) | IC50 (HCoV-OC43 [2]; Betacoronavirus 1, OC43, HCT-8, 0 h) | inhibition activity compared with ribavirin or azithromycin (human coronavirus HKU1) | inhibition activity compared with ribavirin or azithromycin [3] | anti-inflammatory and immunomodulatory effects on PI3K/Akt/mTOR pathway (PI3K/Akt/mTOR pathway) | anti-2109-nCoV activity in vitro (2019-nCoV) | inhibition activity compared with carrimycin [4] | inhibition activity compared with ribavirin or azithromycin [5] | inhibition activity compared with ribavirin or azithromycin [6] | inhibitory effect on the HCoV-OC43 (HCoV-OC43 [1]; MRC-5 cells, 0h administration, in words) | IC50 (HCoV-OC43 [2]; Betacoronavirus 1, OC43, HCT-8 cells, 0h administration, read-out: IC50) | inhibitory effect on the HCoV-OC43 (HCoV-OC43 [2]; HCT-8 cells, 0h administration, in words)
NC(=O)c1ncn([C@@H]2O[C@H](CO)[C@@H](O)[C@H]2O)n1 [RBV, Ribavirin] | >100 µg/mL | 6.42 µg/mL (≈ 26.3 µM) | 7.06 ± 0.91 µg/mL (≈ 28.9 µM) | 7.7 µg/mL (≈ 31.5 µM) | 7.7 µg/mL (≈ 31.5 µM) | 4.77 µg/mL (≈ 19.5 µM) | 63.8 µg/mL (≈ 261 µM) | >100 µg/mL | 11.1 µg/mL (≈ 45.5 µM) |  |  |  |  |  |  |  |  |  | 
CCC(=O)O[C@@H]1CC(=O)O[C@H](C)C/C=C/C=C/[C@H](O[C@H]2CC[C@H](N(C)C)[C@@H](C)O2)[C@H](C)C[C@H](CC=O)[C@H](O[C@@H]2O[C@H](C)[C@@H](O[C@H]3C[C@@](C)(O)[C@@H](OC(=O)CC(C)C)[C@H](C)O3)[C@H](N(C)C)[C@H]2O)[C@H]1OC [isovalerylspiramycin III] |  |  |  |  |  |  |  |  |  | higher than the inhibition activity of ribavirin or azithromycin | higher than the inhibition activity of ribavirin or azithromycin | inhibit the PI3K/Akt/mTOR pathway | anti-2109-nCoV activities in vitro | close to the inhibition activities of carrimycin | higher than the inhibition activity of ribavirin or azithromycin | higher than the inhibition activity of ribavirin or azithromycin |  |  | 
CC[C@H]1OC(=O)[C@H](C)[C@@H](O[C@H]2C[C@@](C)(OC)[C@@H](O)[C@H](C)O2)[C@H](C)[C@@H](O[C@@H]2O[C@H](C)C[C@H](N(C)C)[C@H]2O)[C@](C)(O)C[C@@H](C)CN(C)[C@H](C)[C@@H](O)[C@]1(C)O [Azithromycin] | 48.07 µg/mL (≈ 64.2 µM) | 14.3 µg/mL (≈ 19.1 µM) |  | 19.2 µg/mL (≈ 25.7 µM) | 14.3 µg/mL (≈ 19.1 µM) | 4.77 µg/mL (≈ 6.37 µM) | > 11.1 µg/mL | >100 µg/mL |  |  |  |  |  |  |  |  | no inhibitory effect | > 100 µg/mL | no inhibitory effect
isovalerylspiramycin II |  |  |  |  |  |  |  |  |  | higher than the inhibition activity of ribavirin or azithromycin | higher than the inhibition activity of ribavirin or azithromycin | inhibit the PI3K/Akt/mTOR pathway | anti-2109-nCoV activities in vitro | close to the inhibition activities of carrimycin | higher than the inhibition activity of ribavirin or azithromycin | higher than the inhibition activity of ribavirin or azithromycin |  |  | 
CO[C@@H]1[C@@H](O[C@@H]2O[C@H](C)[C@@H](O[C@H]3C[C@@](C)(O)[C@@H](OC(=O)CC(C)C)[C@H](C)O3)[C@H](N(C)C)[C@H]2O)[C@@H](CC=O)C[C@@H](C)[C@@H](O[C@H]2CC[C@H](N(C)C)[C@@H](C)O2)/C=C/C=C/C[C@@H](C)OC(=O)C[C@H]1O [Isovalerylspiramycin I, isovalerylspiramycin I] |  |  |  |  |  |  |  |  |  | higher than the inhibition activity of ribavirin or azithromycin | higher than the inhibition activity of ribavirin or azithromycin | inhibit the PI3K/Akt/mTOR pathway | anti-2109-nCoV activities in vitro | higher than the inhibition activity of carrimycin | higher than the inhibition activity of ribavirin or azithromycin | higher than the inhibition activity of ribavirin or azithromycin |  |  | 

From patent EP4098265A1 (priority 2020, dated 2021)
